Measured values from patent publication US6136803A, “Antidepressants” (Merrell Pharmaceuticals Inc., priority 1998, dated 2000).
Read-outs that look alike come from different tables or passages of the source.

Test system: -adrenergic receptors (rat cerebral cortical membranes)
Conditions: desipramine 5 mg/kg, i.p.; for [3H]-DHA Specifically Bound: six animals per group, mean ± SEM; for % Control ([3H]-DHA specifically bound): vs saline
Procedure: The number of -adrenergic receptors in rat cerebral cortical membranes was measured after a 4 day and 14 day course of one of the following treatments:
a) saline control (intraperitoneal injection - i.p.)
c) fluoxetine (10 mg/kg/day, i.p.) or (10 mg/kg bid, i.p.)
Male Sprague-Dawley rats (175-200 g) were assigned randomly to one of the four treatment groups above and were treated as indicated for either 4 or 14 days. The animals were sacrificed 24 hours after their last treatment and cerebral cortical membranes were isolated. These membranes were assayed for -adrenergic receptor number by the method of Bylund and Snyder [Mol. Pharmacol. 12, 568 (1976)] by measuring the amount of [^3 H]dihydro-alprenolol ([^3 H]-DHA) bound.

CNCCC(Oc1ccc(C(F)(F)F)cc1)c1ccccc1 (stereo not shown) [Fluoxetine, fluoxetine]
[3H]-DHA Specifically Bound (A) 14 days, fluoxetine 10 mg/kg, saline control 41.8 ± 1.4, * p<0.05 vs saline, + P<0.05 vs desipramine): 37.9 ± 1.8 fmol/mg protein | % Control ([3H]-DHA specifically bound) (A) 14 days, fluoxetine 10 mg/kg): 91 % Control | [3H]-DHA Specifically Bound (B) 4 days, fluoxetine 10 mg/kg bid, saline control 54.6 ± 3.1, * p<0.05 vs saline): 51.8 ± 1.7 fmol/mg protein | % Control ([3H]-DHA specifically bound) (B) 4 days, fluoxetine 10 mg/kg bid): 95 % Control
